Measured values published in patent US10550105B2 (Ribon Therapeutics Inc., priority 2018, dated 2020).

Target: PARP7 (Homo sapiens (Human), UniProt Q7Z3E1)
Assay: Enzymatic assay for inhibition of PARP7: TR-FRET displacement of biotinylated Probe A from the TIPARP active site
Assay type: binding
Conditions: Table A-1
How it was run: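 Displacement of biotinylated Probe A from TIPARP was measured as the 665/615 nm time-resolved FRET ratio (excitation 320 nm, 90 μs delay) after a further 30 min at 25 °C. Inhibition across compound concentrations was fitted by dose-response regression, with the Hill slope free or fixed at 1 (3-parameter fit).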

Sequence of PARP7 (Q7Z3E1 whole entry): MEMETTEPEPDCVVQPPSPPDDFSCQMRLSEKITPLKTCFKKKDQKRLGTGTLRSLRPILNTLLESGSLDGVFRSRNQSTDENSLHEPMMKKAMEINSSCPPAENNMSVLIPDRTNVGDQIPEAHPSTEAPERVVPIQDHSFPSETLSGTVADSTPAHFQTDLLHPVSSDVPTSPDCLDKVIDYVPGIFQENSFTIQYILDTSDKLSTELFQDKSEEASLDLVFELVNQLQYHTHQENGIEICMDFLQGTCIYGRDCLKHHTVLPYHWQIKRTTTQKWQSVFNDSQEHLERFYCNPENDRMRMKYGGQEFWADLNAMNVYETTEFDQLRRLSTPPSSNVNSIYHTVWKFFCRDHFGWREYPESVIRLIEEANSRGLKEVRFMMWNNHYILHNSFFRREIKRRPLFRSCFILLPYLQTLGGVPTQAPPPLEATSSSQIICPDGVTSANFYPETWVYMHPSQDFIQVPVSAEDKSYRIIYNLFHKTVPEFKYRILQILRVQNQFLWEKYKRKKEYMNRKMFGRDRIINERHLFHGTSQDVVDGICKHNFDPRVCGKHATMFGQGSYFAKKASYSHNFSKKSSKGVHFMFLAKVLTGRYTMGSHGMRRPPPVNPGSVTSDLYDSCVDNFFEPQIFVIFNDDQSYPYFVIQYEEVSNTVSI

| SMILES | IC50 [nM] |
| --- | --- |
| COCCOc1cccc2c1CN(c1cn[nH]c(=O)c1Cl)C2 [Example 162, 4-Chloro-5-(4-(2-methoxyethoxy)isoindolin-2-yl)pyridazin-3(2H)-one] | 100 to 1000 |
| NCCOc1cccc2c1CN(c1cn[nH]c(=O)c1Cl)C2 [Example 163, 5-(4-(2-Aminoethoxy)isoindolin-2-yl)-4-chloropyridazin-3(2H)-one] | ≥ 1000 |
| COc1cccc2c1CN(c1cn[nH]c(=O)c1C(F)(F)F)C2 [Example 164, 5-(4-Methoxyisoindolin-2-yl)-4-(trifluoromethyl)pyridazin-3(2H)-one] | < 100 |
| O=c1[nH]ncc(N2Cc3cccc(OC4CCNCC4)c3C2)c1Cl [Example 165, 4-Chloro-5-(4-(piperidin-4-yloxy)isoindolin-2-yl)pyridazin-3(2H)-one] | ≥ 1000 |
| CN(C)CCOc1cccc2c1CN(c1cn[nH]c(=O)c1Cl)C2 [Example 166, 4-Chloro-5-(4-(2-(dimethylamino)ethoxy)isoindolin-2-yl)pyridazin-3(2H)-one] | ≥ 1000 |
| COc1cccc2c1CN(c1cn[nH]c(=O)c1C)C2 [Example 167, 5-(4-Methoxyisoindolin-2-yl)-4-methylpyridazin-3(2H)-one] | 100 to 1000 |
| O=c1[nH]ncc(N2Cc3cccc(OCCO)c3C2)c1Br [Example 168, 4-Bromo-5-(4-(2-hydroxyethoxy)isoindolin-2-yl)pyridazin-3(2H)-one] | 100 to 1000 |
| O=c1[nH]ncc(N2Cc3ccc(F)cc3C2)c1C(F)(F)F [Example 169, 5-(5-Fluoroisoindolin-2-yl)-4-(trifluoromethyl)pyridazin-3(2H)-one] | < 100 |
| O=c1[nH]ncc(N2Cc3cccc(OC4CCNCC4)c3C2)c1C(F)(F)F [Example 170, 5-(4-(Piperidin-4-yloxy)isoindolin-2-yl)-4-(trifluoromethyl)pyridazin-3(2H)-one] | < 100 |
| Cc1c(N2Cc3cccc(OCCO)c3C2)cn[nH]c1=O [Example 171, 5-(4-(2-Hydroxyethoxy)isoindolin-2-yl)-4-methylpyridazin-3(2H)-one] | ≥ 1000 |
| O=c1[nH]ncc(N2Cc3cccc(OC4CCNCC4)c3C2)c1Br [Example 172, 4-Bromo-5-(4-(piperidin-4-yloxy)isoindolin-2-yl)pyridazin-3(2H)-one] | 100 to 1000 |
| COc1ccc2c(c1)CN(c1cn[nH]c(=O)c1C)C2 [Example 173, 5-(5-Methoxyisoindolin-2-yl)-4-methylpyridazin-3(2H)-one] | 100 to 1000 |
| COc1ccc2c(c1)CN(c1cn[nH]c(=O)c1C(F)(F)F)C2 [Example 174, 5-(5-Methoxyisoindolin-2-yl)-4-(trifluoromethyl)pyridazin-3(2H)-one] | < 100 |
| Cc1c(N2Cc3cccc(OC4CCNCC4)c3C2)cn[nH]c1=O [Example 175, 4-Methyl-5-(4-(piperidin-4-yloxy)isoindolin-2-yl)pyridazin-3(2H)-one] | ≥ 1000 |
| N#Cc1c(N2Cc3cccc(OCCO)c3C2)cn[nH]c1=O [Example 176, 5-(4-(2-Hydroxyethoxy)isoindolin-2-yl)-3-oxo-2,3-dihydropyridazine-4-carbonitrile] | ≥ 1000 |
| O=c1[nH]ncc(N2Cc3ccc(OCCO)cc3C2)c1C(F)(F)F [Example 177, 5-(5-(2-Hydroxyethoxy)isoindolin-2-yl)-4-(trifluoromethyl)pyridazin-3(2H)-one] | < 100 |
| CN(C)c1cccc2c1CN(c1cn[nH]c(=O)c1C(F)(F)F)C2 [Example 178, 5-(4-(Dimethylamino)isoindolin-2-yl)-4-(trifluoromethyl)pyridazin-3(2H)-one] | < 100 |
| CC(=O)Nc1cccc2c1CN(c1cn[nH]c(=O)c1C(F)(F)F)C2 [Example 179, N-(2-(6-Oxo-5-(trifluoromethyl)-1,6-dihydropyridazin-4-yl)isoindolin-4-yl)acetamide] | 100 to 1000 |
| O=c1[nH]ncc(N2Cc3cccc(F)c3C2)c1C(F)(F)F [Example 180, 5-(4-Fluoroisoindolin-2-yl)-4-(trifluoromethyl)pyridazin-3(2H)-one] | < 100 |
| O=c1[nH]ncc(N2Cc3cccc(OCCO)c3C2)c1C(F)(F)F [Example 181, 5-(4-(2-Hydroxyethoxy)isoindolin-2-yl)-4-(trifluoromethyl)pyridazin-3(2H)-one] | < 100 |
| N#Cc1c(N2Cc3cccc(OC4CCNCC4)c3C2)cn[nH]c1=O [Example 182, 3-Oxo-5-(4-(piperidin-4-yloxy)isoindolin-2-yl)-2,3-dihydropyridazine-4-carbonitrile formic acid] | ≥ 1000 |
| O=c1[nH]ncc(N2Cc3cccc(OC4CCNCC4)c3C2)c1C1CC1 [Example 183, 4-Cyclopropyl-5-(4-(piperidin-4-yloxy)isoindolin-2-yl)pyridazin-3(2H)-one formic acid] | ≥ 1000 |
| COc1c(N2Cc3cccc(OCCO)c3C2)cn[nH]c1=O [Example 184, 5-(4-(2-Hydroxyethoxy)isoindolin-2-yl)-4-methoxypyridazin-3(2H)-one] | ≥ 1000 |

| SMILES | IC50 [nM] |
| --- | --- |
| CCc1c(N2Cc3cccc(OCCO)c3C2)cn[nH]c1=O [Example 185, 4-Ethyl-5-(4-(2-hydroxyethoxy)isoindolin-2-yl)pyridazin-3(2H)-one] | ≥ 1000 |
| O=c1[nH]ncc(N2Cc3cccc(OCCO)c3C2)c1C1CC1 [Example 186, 4-Cyclopropyl-5-(4-(2-hydroxyethoxy)isoindolin-2-yl)pyridazin-3(2H)-one] | ≥ 1000 |
| Cc1c(N2Cc3ccc(OC4CCNCC4)cc3C2)cn[nH]c1=O [Example 187, 4-Methyl-5-(5-(piperidin-4-yloxy)isoindolin-2-yl)pyridazin-3(2H)-one] | ≥ 1000 |
| Cc1c(N2Cc3ccc(OCCO)cc3C2)cn[nH]c1=O [Example 188, 5-(5-(2-Hydroxyethoxy)isoindolin-2-yl)-4-methylpyridazin-3(2H)-one] | 100 to 1000 |
| CSc1c(N2Cc3ccccc3C2)cn[nH]c1=O [Example 189, 5-(Isoindolin-2-yl)-4-(methylthio)pyridazin-3(2H)-one] | 100 to 1000 |
| O=c1[nH]ncc(N2Cc3ccccc3C2CO)c1Cl (stereo not drawn) [Example 191, 4-Chloro-5-(1-(hydroxymethyl)isoindolin-2-yl)pyridazin-3(2H)-one] | ≥ 1000 |
| CCOc1cccc2c1CN(c1cn[nH]c(=O)c1C(F)(F)F)C2 [Example 192, 5-(4-Ethoxyisoindolin-2-yl)-4-(trifluoromethyl)pyridazin-3(2H)-one] | < 100 |
| CC(C)Oc1cccc2c1CN(c1cn[nH]c(=O)c1C(F)(F)F)C2 [Example 193, 5-(4-Isopropoxyisoindolin-2-yl)-4-(trifluoromethyl)pyridazin-3(2H)-one] | < 100 |
| O=c1[nH]ncc(N2Cc3cccc(OC4CCOCC4)c3C2)c1C(F)(F)F [Example 194, 5-(4-((Tetrahydro-2H-pyran-4-yl)oxy)isoindolin-2-yl)-4-(trifluoromethyl)pyridazin-3(2H)-one] | < 100 |
| O=c1[nH]ncc(N2Cc3cccc(Oc4ccncn4)c3C2)c1C(F)(F)F [Example 195, 5-(4-(Pyrimidin-4-yloxy)isoindolin-2-yl)-4-(trifluoromethyl)pyridazin-3(2H)-one] | < 100 |
| O=c1[nH]ncc(N2Cc3cccc(OCc4ccncc4)c3C2)c1C(F)(F)F [Example 196, 5-(4-(Pyridin-4-ylmethoxy)isoindolin-2-yl)-4-(trifluoromethyl)pyridazin-3(2H)-one] | < 100 |
| O=c1[nH]ncc(N2Cc3cccc(OCc4cccnc4)c3C2)c1C(F)(F)F [Example 197, 5-(4-(Pyridin-3-ylmethoxy)isoindolin-2-yl)-4-(trifluoromethyl)pyridazin-3(2H)-one] | < 100 |
| O=c1[nH]ncc(N2Cc3cccc(OCc4ccccn4)c3C2)c1C(F)(F)F [Example 198, 5-(4-(Pyridin-2-ylmethoxy)isoindolin-2-yl)-4-(trifluoromethyl)pyridazin-3(2H)-one] | < 100 |
| O=c1[nH]ncc(N2Cc3cccc(OCC4CCCOC4)c3C2)c1C(F)(F)F (stereo not drawn) [Example 199, 5-(4-((Tetrahydro-2H-pyran-3-yl)methoxy)isoindolin-2-yl)-4-(trifluoromethyl)pyridazin-3(2H)-one] | < 100 |
| O=c1[nH]ncc(N2Cc3cccc(OCC4CCOC4)c3C2)c1C(F)(F)F (stereo not drawn) [Example 200, 5-(4-((Tetrahydrofuran-3-yl)methoxy)isoindolin-2-yl)-4-(trifluoromethyl)pyridazin-3(2H)-one] | < 100 |
| O=c1[nH]ncc(N2Cc3cccc(OCC4CCCO4)c3C2)c1C(F)(F)F (stereo not drawn) [Example 201, 5-(4-((Tetrahydrofuran-2-yl)methoxy)isoindolin-2-yl)-4-(trifluoromethyl)pyridazin-3(2H)-one] | < 100 |
| O=C1OCCC1Oc1cccc2c1CN(c1cn[nH]c(=O)c1C(F)(F)F)C2 (stereo not drawn) [Example 202, 5-(4-((2-Oxotetrahydrofuran-3-yl)oxy)isoindolin-2-yl)-4-(trifluoromethyl)pyridazin-3(2H)-one] | < 100 |
| O=c1[nH]ncc(N2Cc3cccc(OC4CCOC4)c3C2)c1C(F)(F)F (stereo not drawn) [Example 203, 5-(4-((Tetrahydrofuran-3-yl)oxy)isoindolin-2-yl)-4-(trifluoromethyl)pyridazin-3(2H)-one] | < 100 |
| NC(=O)COc1cccc2c1CN(c1cn[nH]c(=O)c1C(F)(F)F)C2 [Example 204, 2-((2-(6-Oxo-5-(trifluoromethyl)-1,6-dihydropyridazin-4-yl)isoindolin-4-yl)oxy)acetamide] | 100 to 1000 |
| Nc1cccc2c1CN(c1cn[nH]c(=O)c1C(F)(F)F)C2 [Example 205, 5-(4-Aminoisoindolin-2-yl)-4-(trifluoromethyl)pyridazin-3(2H)-one] | < 100 |
| N#Cc1cccc2c1CN(c1cn[nH]c(=O)c1C(F)(F)F)C2 [Example 206, 2-(6-Oxo-5-(trifluoromethyl)-1,6-dihydropyridazin-4-yl)isoindoline-4-carbonitrile] | < 100 |
| COCC1c2ccccc2CN1c1cn[nH]c(=O)c1Cl (stereo not drawn) [Example 207, 4-Chloro-5-(1-(methoxymethyl)isoindolin-2-yl)pyridazin-3(2H)-one] | ≥ 1000 |
